What was measured:
[1] = system: K562; assay: Antiproliferative activity against human K562 cells assessed as cell growth inhibition incubated for 5 days by CCK-8 assay; format: functional, cell-based
[2] = target: Histone-lysine N-methyltransferase 2A/WDR5 (Homo sapiens, UniProt P61964); assay: Inhibition of MLL1/WDR5 (unknown origin) protein-protein interaction incubated for 60 mins by HTRF analysis; format: protein assay
[3] = system: MV4-11; assay: Antiproliferative activity against human MV4-11 cells harboring MLL-r assessed as cell growth inhibition incubated for 5 days by CCK-8 assay; format: functional, cell-based

SMILES	IC50 ([1]; Homo sapiens, K562, 120 h) [µM]	IC50 ([1]; k562) [µM]	IC50 [2] [nM]	IC50 ([3]; Homo sapiens, MV4-11, 120 h) [µM]	IC50 ([3]; mv4-11) [µM]
COC(=O)[C@@H](Cc1ccc(Cl)cc1)NC(=O)c1cc(NCc2nc[nH]c2C)cc(-c2ccccc2SC)c1	3			3.9	
CSc1ccccc1-c1cc(NCc2nc[nH]c2C)cc2c1CCCN(CCc1ccc(Cl)cc1)C2=O	3.03		319	3.93	
Cc1[nH]cnc1CNc1cc(Br)cc(C(=O)N[C@H](Cc2ccc(Cl)cc2)C(=O)O)c1			50		
Cc1[nH]cnc1CNc1cc(C(=O)N[C@H](Cc2ccc(Cl)cc2)C(=O)O)ccc1F			84.6		
Cc1[nH]cnc1CNc1cc(C(=O)N[C@H](Cc2ccc([N+](=O)[O-])cc2)C(=O)O)ccc1F			239		
Cc1[nH]cnc1CNc1cc2c(c(-c3ccc(Cl)cc3C(F)(F)F)c1)CCN(CCc1ccc(Cl)cc1)C2=O	5.2		75.8	4.8	
Cc1[nH]cnc1CNc1cc(Br)cc(C(=O)N[C@H](Cc2ccc(Cl)cc2)C(=O)NC2CC2)c1			32.4		
CSc1ccccc1-c1cc(NCc2nc[nH]c2C)cc2c1CCN(Cc1ccc(Cl)cc1)C2=O	4.9		40.5	3.4	
CSc1ccccc1-c1cc(NCc2nc[nH]c2C)cc2c1CCN(CCc1ccc(Cl)cc1)C2=O	4.7		41.6	4.8	
COC(=O)[C@@H](Cc1ccc(Cl)cc1)NC(=O)c1cc(NCc2nc[nH]c2C)cc(-c2cc(CO)ccc2C)c1	4.9			5.5	
CSc1cc(F)ccc1-c1cc(NCc2nc[nH]c2C)cc2c1CCN(Cc1ccc(Cl)cc1)C2=O	3.5		26.9	2.3	
CSc1cc(F)ccc1-c1cc(NCc2nc[nH]c2C)cc2c1CCN(CCc1ccc(Cl)cc1)C2=O	4		39.5	3.5	
CNC(=O)[C@@H](Cc1ccc(Cl)cc1)NC(=O)c1cc(NCc2nc[nH]c2C)cc(-c2ccc(C(C)(F)F)cc2)c1			149		
Cc1[nH]cnc1CNc1cc(Br)cc(C(=O)NCCc2ccc(Cl)cc2)c1			221		

More lines, in order of falling IC50 [2], values ahead:

IC50 ([1]; Homo sapiens, K562, 120 h) [µM]	IC50 ([1]; k562) [µM]	IC50 [2] [nM]	IC50 ([3]; Homo sapiens, MV4-11, 120 h) [µM]	IC50 ([3]; mv4-11) [µM]	SMILES
		25.2			CNC(=O)[C@@H](Cc1ccc(Cl)cc1)NC(=O)c1cc(Br)cc(NCc2nc[nH]c2C)c1
		18.8			CNC(=O)[C@@H](Cc1ccc(Cl)cc1)NC(=O)c1cc(NCc2nc[nH]c2C)cc(-c2ccccc2C2CC2)c1
3.4		17.2	6.2		Cc1ccc(CO)cc1-c1cc(NCc2nc[nH]c2C)cc2c1CCN(CCc1ccc(Cl)cc1)C2=O
7.1		15.5	5.7		Cc1ccc(CO)cc1-c1cc(NCc2nc[nH]c2C)cc2c1CCN(Cc1ccc(Cl)cc1)C2=O
1.1		11.3	1.9		CNC(=O)[C@@H](Cc1ccc(Cl)cc1)NC(=O)c1cc(NCc2nc[nH]c2C)cc(-c2ccccc2SC)c1
3.43	4.9	9.8	6.2	4.13	CNC(=O)[C@@H](Cc1ccc(Cl)cc1)NC(=O)c1cc(NCc2nc[nH]c2C)cc(-c2ccc(Cl)cc2C(F)(F)F)c1
12.2		8.6	5		CNC(=O)[C@@H](Cc1ccc(Cl)cc1)NC(=O)c1cc(NCc2nc[nH]c2C)cc(-c2cc(CO)ccc2C)c1
3.6		6.8	0.17		COc1cc(CN2CCc3c(cc(Cn4ccn(C)c4=N)cc3-c3ccc(F)cc3C)C2=O)cc(OC)c1

— ChEMBL document CHEMBL5537156, “Discovery and Optimization of WDR5 Inhibitors via Cascade Deoxyribonucleic Acid-Encoded Library Selection Approach” (J Med Chem, 2024)
